Where a name gives a salt, the structure may show the parent alone.
Structure (SMILES) | melting point
O=C(NCc1ccccn1)c1ccnc(N2CCN(Cc3ccc(F)cc3)C2=O)c1 (as salt: hydrochloride) [Example 15.3, 2-(3-(4-fluorobenzyl)-2-oxoimidazolidin-1-yl)-N-(pyridin-2-ylmethyl)isonicotinamide dihydrochloride] | 141 to 143 °C
O=C(NCc1ccc(C(F)(F)F)cc1)c1ccnc(NC(=O)c2ccccc2)c1 [Example 1, 2-benzamido-N-(4-(trifluoromethyl)benzyl)isonicotinamide] | 165 to 168 °C
Cc1ccc(CNC(=O)c2ccnc(NC(=O)c3ccccc3)c2)cc1 [Example 1.2, 2-benzamido-N-(4-methylbenzyl)isonicotinamide] | 135 to 138 °C
O=C(Nc1cc(-c2nc3ccccc3[nH]2)ccn1)c1ccccc1 [Example 4, N-(4-(1H-benzo[d]imidazol-2-yl)pyridin-2-yl)benzamide] | 145 to 146 °C
O=C(NCc1ccccc1)c1ccnc(NC(=O)c2ccccc2)c1 [Example 5, 2-benzamido-N-benzylisonicotinamide] | 174 to 176 °C
O=C(NCc1ccccc1)c1ccnc(NC(=O)c2ccc(OC(F)(F)F)cc2)c1 [Example 5.1, N-benzyl-2-(4-trifluoromethoxybenzoylamino)isonicotinamide] | 151 to 153 °C
O=C(NCc1ccccc1)c1ccnc(NC(=O)c2ccc(C(F)(F)F)cc2)c1 [Example 5.2, N-benzyl-2-(4-trifluoromethylbenzoylamino)isonicotinamide] | 181 to 183 °C
O=C(CCc1ccccc1)Nc1cc(C(=O)NCc2ccccc2)ccn1 [Example 5.3, N-benzyl-2-(3-phenylpropanamido)isonicotinamide] | 177 to 179 °C
O=C(NCc1ccccc1)c1ccnc(NC(=O)c2ccccc2F)c1 [Example 6, N-benzyl-2-(2-fluorobenzamido)isonicotinamide] | 175 to 176 °C
O=C(NCc1ccccc1)c1ccnc(NC(=O)c2cccc(F)c2)c1 [Example 6.1, N-benzyl-2-(3-fluorobenzamido)isonicotinamide] | 140 to 143 °C
O=C(NCc1ccccc1)c1ccnc(NC(=O)C2CCCC2)c1 [Example 6.2, N-benzyl-2-(cyclopentanecarboxamido)isonicotinamide] | 55 to 57 °C
O=C(NCc1ccccc1)c1ccnc(NC(=O)c2cccs2)c1 [Example 6.3, N-benzyl-2-(thiophene-2-carboxamido)isonicotinamide] | 160 to 162 °C
COc1ccc(C(=O)Nc2cc(C(=O)NCc3ccccc3)ccn2)cc1 [Example 6.5, N-benzyl-2-(4-methoxybenzamido)isonicotinamide] | 165 to 166 °C
COc1ccccc1C(=O)Nc1cc(C(=O)NCc2ccccc2)ccn1 [Example 6.6, N-benzyl-2-(2-methoxybenzamido)isonicotinamide] | 205 to 207 °C
O=C(NCc1ccccc1)c1ccnc(NC(=O)c2cccc3ccccc23)c1 [Example 6.7, 2-(1-naphthamido)-N-benzylisonicotinamide] | 65 to 67 °C
O=C(NCc1ccccc1)c1ccnc(NC(=O)c2cc(F)ccc2Cl)c1 [Example 6.9, N-benzyl-2-(2-chloro-5-fluorobenzamido)isonicotinamide] | 180 to 181 °C
N#Cc1ccc(C(=O)Nc2cc(C(=O)NCc3ccccc3)ccn2)cc1 [Example 6.10, N-benzyl-2-(4-cyanobenzamido)isonicotinamide] | 180 to 181 °C
CS(=O)(=O)c1cccc(C(=O)Nc2cc(C(=O)NCc3ccccc3)ccn2)c1 [Example 6.13, N-benzyl-2-(3-(methylsulfonyl)benzamido)isonicotinamide] | 170 to 171 °C
O=C(NCc1ccccc1)c1ccnc(NC(=O)c2ccc(F)cc2)c1 [Example 6.14, N-benzyl-2-(4-fluorobenzamido)isonicotinamide] | 170 to 171 °C
O=C(NCc1ccccc1)c1ccnc(NC(=O)c2cccc(C(F)(F)F)c2)c1 [Example 6.15, N-benzyl-2-(3-(trifluoromethyl)benzamido)isonicotinamide] | 126 to 128 °C
COc1cc(C(=O)NCc2ccccc2)cc(NC(=O)c2ccccc2)n1 [Example 6.17, 2-benzamido-N-benzyl-6-methoxyisonicotinamide] | 132 to 133 °C
O=C(NCc1ccccc1)c1cc[n+]([O-])c(NC(=O)c2ccccc2)c1 [Example 7, 2-benzamido-N-benzylisonicotinamide-1-N-oxide] | 198 to 201 °C
O=C(NCc1ccccc1)c1cc(O)nc(NC(=O)c2ccccc2)c1 [Example 8, 2-benzamido-N-benzyl-6-hydroxyisonicotinamide] | 257 °C (dec.)

Structure (SMILES) | melting point
Cc1c[nH]c(-c2ccnc(NC(=O)c3ccccc3)c2)n1 [Example 10, N-(4-(4-methyl-1H-imidazol-2-yl)pyridin-2-yl)benzamide] | 133 to 135 °C
CCCc1c[nH]c(-c2ccnc(NC(=O)c3ccccc3)c2)n1 [Example 10.1, N-(4-(4-propyl-1H-imidazol-2-yl)pyridin-2-yl)benzamide] | 95 to 97 °C
CC(C)Cc1c[nH]c(-c2ccnc(NC(=O)c3ccccc3)c2)n1 [Example 10.3, N-(4-(4-isobutyl-1H-imidazol-2-yl)pyridin-2-yl)benzamide] | 103 to 105 °C
O=C(Nc1cc(-c2nc(-c3ccccc3)c[nH]2)ccn1)c1ccccc1 [Example 10.5, N-(4-(4-phenyl-1H-imidazol-2-yl)pyridin-2-yl)benzamide] | 265 to 267 °C
O=C(Nc1cc(-c2nnc(-c3ccccc3)o2)ccn1)c1ccccc1 [Example 11, N-(4-(5-phenyl-1,3,4-oxadiazol-2-yl)pyridin-2-yl)benzamide] | 151 to 155 °C
O=C(Nc1cc(-c2nnc(Cc3ccccc3)o2)ccn1)c1ccccc1 [Example 11.1, N-[4-(5-benzyl-[1,3,4]oxadiazol-2-yl)-pyridin-2-yl]benzamide] | 187 to 189 °C
O=C(Nc1cc(-c2nc(Cc3ccccc3)no2)ccn1)c1ccccc1 [Example 12, N-[4-(3-benzyl-[1,2,4]oxadiazol-5-yl)-pyridin-2-yl]benzamide] | 150 to 151 °C
CNC(=O)c1ccnc(N2CCN(Cc3ccc(F)cc3)C2=O)c1 [Example 13, 2-(3-(4-fluorobenzyl)-2-oxoimidazolidin-1-yl)-N-methylisonicotinamide] | 118 to 120 °C
O=C(NCc1cncs1)c1ccnc(N2CCN(Cc3ccc(F)cc3)C2=O)c1 [Example 14.1, 2-(3-(4-fluorobenzyl)-2-oxoimidazolidin-1-yl)-N-(thiazol-5-ylmethyl)isonicotinamide] | 148 to 150 °C
O=C(NCc1nccs1)c1ccnc(N2CCN(Cc3ccc(F)cc3)C2=O)c1 [Example 14.3, 2-(3-(4-fluorobenzyl)-2-oxoimidazolidin-1-yl)-N-(thiazol-2-ylmethyl)isonicotinamide] | 123 to 125 °C
O=C(NCc1ncco1)c1ccnc(N2CCN(Cc3ccc(F)cc3)C2=O)c1 [Example 14.4, 2-(3-(4-fluorobenzyl)-2-oxoimidazolidin-1-yl)-N-(oxazol-2-ylmethyl)isonicotinamide] | 148 to 150 °C
Cn1ccc(CNC(=O)c2ccnc(N3CCN(Cc4ccc(F)cc4)C3=O)c2)n1 [Example 14.6, 2-(3-(4-fluorobenzyl)-2-oxoimidazolidin-1-yl)-N-((1-methyl-1H-pyrazol-3-yl)methyl)isonicotinamide] | 79 to 81 °C
Cc1nn(C)c(C)c1CNC(=O)c1ccnc(N2CCN(Cc3ccc(F)cc3)C2=O)c1 [Example 14.7, 2-(3-(4-fluorobenzyl)-2-oxoimidazolidin-1-yl)-N-((1,3,5-trimethyl-1H-pyrazol-4-yl)methyl)isonicotinamide] | 179 to 181 °C
Cn1cc(CNC(=O)c2ccnc(N3CCN(Cc4ccc(F)cc4)C3=O)c2)cn1 [Example 14.8, 2-(3-(4-fluorobenzyl)-2-oxoimidazolidin-1-yl)-N-((1-methyl-1H-pyrazol-4-yl)methyl)isonicotinamide] | 165 to 166 °C
O=C(NCc1cc[nH]n1)c1ccnc(N2CCN(Cc3ccc(F)cc3)C2=O)c1 [Example 14.9, N-((1H-pyrazol-3-yl)methyl)-2-(3-(4-fluorobenzyl)-2-oxoimidazolidin-1-yl)isonicotinamide] | 178 to 180 °C
Cc1cc(CNC(=O)c2ccnc(N3CCN(Cc4ccc(F)cc4)C3=O)c2)nn1C [Example 14.11, N-((1,5-dimethyl-1H-pyrazol-3-yl)methyl)-2-(3-(4-fluorobenzyl)-2-oxoimidazolidin-1-yl)isonicotinamide] | 150 to 152 °C
O=C(NC[C@H](O)c1ccccc1)c1ccnc(N2CCN(Cc3ccc(F)cc3)C2=O)c1 [Example 14.12, (R)-2-(3-(4-fluorobenzyl)-2-oxoimidazolidin-1-yl)-N-(2-hydroxy-2-phenylethyl)isonicotinamide] | 97 to 99 °C
Cc1nc(CNC(=O)c2ccnc(N3CCN(Cc4ccc(F)cc4)C3=O)c2)cs1 [Example 14.13, 2-(3-(4-fluorobenzyl)-2-oxoimidazolidin-1-yl)-N-((2-methylthiazol-4-yl)methyl)isonicotinamide] | 76 to 78 °C
O=C(NCc1ccon1)c1ccnc(N2CCN(Cc3ccc(F)cc3)C2=O)c1 [Example 14.14, 2-(3-(4-fluorobenzyl)-2-oxoimidazolidin-1-yl)-N-(isoxazol-3-ylmethyl)isonicotinamide] | 127 to 129 °C
O=C(NCc1csc(C(F)(F)F)n1)c1ccnc(N2CCN(Cc3ccc(F)cc3)C2=O)c1 [Example 14.15, 2-(3-(4-fluorobenzyl)-2-oxoimidazolidin-1-yl)-N-((2-(trifluoromethyl)thiazol-4-yl)methyl)isonicotinamide] | 66 to 68 °C
Cc1nc(-c2ccccc2)sc1CNC(=O)c1ccnc(N2CCN(Cc3ccc(F)cc3)C2=O)c1 [Example 14.16, 2-(3-(4-fluorobenzyl)-2-oxoimidazolidin-1-yl)-N-((4-methyl-2-phenylthiazol-5-yl)methyl)isonicotinamide] | 182 to 184 °C
O=C(NCc1ccccc1)c1ccnc(N2CCN(Cc3ccc(F)cc3)C2=O)c1 [Example 15, N-benzyl-2-(3-(4-fluorobenzyl)-2-oxoimidazolidin-1-yl)isonicotinamide] | 167 to 169 °C

From patent publication US9187426B2, “Organic compounds” (Novartis AG, priority 2008, dated 2015)
